Results: EP0134650B1, “High boiling solvent system for recovery of acetic acid from aqueous solutions” (CELANESE CORPORATION, priority 1983, dated 1985)

Assay: Dissolved water in the solvent layer (extract) of acetic acid extraction
Format: physicochemical
Settings: Acid in solvent layer 16.85 wt.%
Description: Generally as the distribution coefficient goes up, water solubility increases in the extract. The effect for methyl n-amyl ketone and diisobutyl ketone is as follows: […]

Compound	Dissolved water in solvent layer, wt.% [wt.%]
CC(C)CC(=O)CC(C)C [diisobutyl ketone]	3.0
CCCCCC(C)=O [methyl n-amyl ketone]	5.0
